Test results reported in the supplement of paper PMC10307832.

What was measured:
Assay in all cases: relative viability (nuclei count vs DMSO), 5 days (fraction); higher = more cells survive
RO-3306 + OSI-027 = compound: C1=CC2=C(C=CC(=C2)C=C3C(=O)NC(=NCC4=CC=CS4)S3)N=C1 [RO-3306] + COc1cccc2cc(-c3nc([C@H]4CC[C@H](C(=O)O)CC4)n4ncnc(N)c34)[nH]c12 [OSI-027] (partner 0.5 µM)
Procedure, shortened: (§1)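 A single step with final 0.05% Triton X-100, 1% formaldehyde and 1 ug/ml Hoechst fixed the cells and stained nuclei 5 days after treatment. Lung cancer cell lines in 1536-well plates had been treated by pin tool the day after seeding with one drug alone or a fixed anchor-drug dose plus five library-drug doses (not always all listed) in √10 steps, and nuclei were counted on 4× images. Relative viability is the ratio of nuclei in treated wells to nuclei in vehicle wells, taken as the median of duplicate plates.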

RO-3306 + Dasatinib = compound: C1=CC2=C(C=CC(=C2)C=C3C(=O)NC(=NCC4=CC=CS4)S3)N=C1 [RO-3306] + Cc1nc(Nc2ncc(C(=O)Nc3c(C)cccc3Cl)s2)cc(N2CCN(CCO)CC2)n1 [Dasatinib] (partner 0.075 µM)
Procedure, shortened: as §1

RO-3306 + Foretinib = compound: C1=CC2=C(C=CC(=C2)C=C3C(=O)NC(=NCC4=CC=CS4)S3)N=C1 [RO-3306] + COc1cc2c(Oc3ccc(NC(=O)C4(C(=O)Nc5ccc(F)cc5)CC4)cc3F)ccnc2cc1OCCCN1CCOCC1 [Foretinib] (partner 0.25 µM)
Procedure, shortened: as §1

[1] = compound: O=S(=O)(c1ccccc1)N(CC(F)(F)F)c1ccc(C(O)(C(F)(F)F)C(F)(F)F)cc1 + Cc1nc(NC(=O)N2CCC[C@H]2C(N)=O)sc1-c1ccnc(C(C)(C)C(F)(F)F)c1 [Alpelisib] (partner 2 µM)
Procedure, shortened: as §1

| Cell Line | relative viability (RO-3306 + OSI-027; first compound 0.01 µM) | relative viability (RO-3306 + OSI-027; first compound 0.03162 µM) | relative viability (RO-3306 + OSI-027; first compound 0.1 µM) | relative viability (RO-3306 + OSI-027; first compound 0.3162 µM) | relative viability (RO-3306 + OSI-027; first compound 1 µM) | relative viability (RO-3306 + Dasatinib; first compound 0.01 µM) | relative viability (RO-3306 + Dasatinib; first compound 0.03162 µM) | relative viability (RO-3306 + Dasatinib; first compound 0.1 µM) | relative viability (RO-3306 + Dasatinib; first compound 0.3162 µM) | relative viability (RO-3306 + Dasatinib; first compound 1 µM) | relative viability (RO-3306 + Foretinib; first compound 0.01 µM) | relative viability (RO-3306 + Foretinib; first compound 0.03162 µM) | relative viability (RO-3306 + Foretinib; first compound 0.1 µM) | relative viability (RO-3306 + Foretinib; first compound 0.3162 µM) | relative viability (RO-3306 + Foretinib; first compound 1 µM) | relative viability ([1]; first compound 0.8 µM) | relative viability ([1]; first compound 2.53 µM) | relative viability ([1]; first compound 8 µM) |
| --- | --- | --- | --- | --- | --- | --- | --- | --- | --- | --- | --- | --- | --- | --- | --- | --- | --- | --- |
| 201T | 0.586 | 0.729 | 0.709 | 0.779 | 0.672 | 0.584 | 0.588 | 0.571 | 0.529 | 0.517 | 1.28 | 1.27 | 1.01 | 1.03 | 0.613 | 1 | 0.915 | 0.987 |
| A549 |  |  |  |  |  |  |  |  |  |  | 1.1 | 0.891 | 1 | 0.883 | 0.818 | 0.643 | 0.779 | 0.677 |
| A-427 | 0.459 | 0.457 | 0.423 | 0.451 | 0.497 | 0.739 | 0.565 | 0.644 | 0.631 | 0.551 | 0.923 | 0.937 | 1.07 | 1.06 | 1.13 | 1.11 | 1.02 | 1.02 |
| ABC-1 | 0.411 | 0.375 | 0.402 | 0.483 | 0.403 | 0.644 | 0.614 | 0.483 | 0.458 | 0.531 | 1.06 | 0.975 | 0.999 | 1.1 | 1.06 | 0.936 | 0.916 | 1.1 |
| BEN | 0.333 | 0.3 | 0.256 | 0.297 | 0.283 | 0.381 | 0.324 | 0.297 | 0.307 | 0.338 | 0.513 | 0.684 | 0.664 | 0.673 | 0.747 | 1.13 | 0.953 | 0.902 |
| CAL-12T | 0.378 | 0.615 | 0.585 | 0.616 | 0.597 | 0.394 | 0.279 | 0.345 | 0.372 | 0.356 | 1.18 | 1.06 | 1.16 | 1.07 | 1.23 | 1.52 | 1.13 | 1.02 |
| COR-L23 | 0.741 | 0.688 | 0.783 | 0.632 | 0.514 | 0.477 | 0.392 | 0.48 | 0.642 | 0.374 | 0.958 | 0.941 | 0.966 | 1.13 | 1.08 | 0.846 | 0.8 | 0.867 |
| COR-L 105 | 0.589 | 0.607 | 0.64 | 0.864 | 0.735 | 0.3 | 0.302 | 0.271 | 0.344 | 0.335 | 1.74 | 1.23 | 1.06 | 1.17 | 0.859 | 1.13 | 0.848 | 0.989 |
| Calu-6 |  |  |  |  |  |  |  |  |  |  | 0.948 | 0.957 | 0.973 | 0.942 | 0.82 | 0.82 | 0.77 | 0.885 |
| ChaGo-K-1 | 0.59 | 0.365 | 0.455 | 0.474 | 0.341 | 0.63 | 0.624 | 0.569 | 0.622 | 0.349 | 0.849 | 0.783 | 0.868 | 0.816 | 0.702 |  |  |  |
| EBC-1 |  |  |  |  |  |  |  |  |  |  | 0.0936 | 0.118 | 0.101 | 0.121 | 0.0921 | 0.572 | 0.474 | 0.547 |
| EKVX | 0.757 | 0.646 | 0.661 | 0.955 | 0.684 | 0.349 |  | 0.514 | 0.55 | 0.492 | 0.805 | 0.748 | 0.841 | 0.741 | 0.744 | 0.892 | 0.803 | 0.955 |
| EMC-BAC-2 | 0.306 | 0.36 | 0.358 | 0.352 | 0.315 | 0.337 | 0.522 | 0.329 | 0.326 | 0.304 | 0.977 | 0.892 | 0.976 | 1.03 | 1.05 | 0.874 | 0.754 | 0.757 |
| EPLC-272H | 0.259 | 0.252 | 0.29 | 0.223 | 0.283 | 0.365 | 0.193 | 0.384 | 0.237 | 0.299 | 0.723 | 0.541 | 0.598 | 0.683 | 0.533 | 0.818 | 1.04 | 0.681 |
| H3255 | 0.671 | 0.476 | 0.604 | 0.594 | 0.504 | 0.358 | 0.381 | 0.353 | 0.327 | 0.329 | 0.798 | 0.711 | 0.758 | 0.848 | 0.898 | 0.783 | 0.632 | 0.569 |
| HARA | 0.661 | 0.449 | 0.527 | 0.612 | 0.436 | 0.362 | 0.256 | 0.356 | 0.306 | 0.257 | 1.08 | 0.58 | 0.884 | 0.882 | 0.767 | 0.647 | 0.721 | 0.539 |
| HCC-15 | 0.664 | 0.562 | 0.649 | 0.808 | 0.608 | 0.594 | 0.554 | 0.59 | 0.534 | 0.574 | 1.19 | 0.954 | 0.963 | 1.01 | 0.93 | 0.908 | 0.809 | 0.823 |
| HCC-44 | 0.371 | 0.441 | 0.434 | 0.402 | 0.387 |  |  |  |  |  |  |  |  |  |  | 0.913 | 0.946 | 0.927 |
| HCC-78 | 0.324 | 0.401 | 0.384 | 0.404 | 0.329 | 0.36 | 0.345 | 0.444 | 0.406 | 0.384 | 0.487 | 0.568 | 0.595 | 0.564 | 0.573 | 0.349 | 0.298 | 0.289 |
| HCC-366 | 1.13 | 1.06 | 0.847 | 0.955 | 0.654 | 0.794 | 0.565 | 0.677 | 0.668 | 0.652 | 0.91 | 0.96 | 0.942 | 0.884 | 0.931 | 0.469 | 0.436 | 0.428 |
